Patent US8802597B2, “Herbicidal pyrimidines” (E I du Pont de Nemours and Company, priority 2003, dated 2014)
Read-outs that look alike come from different tables or passages of the source.

Experiments:
Assay in all cases: Test C pre/postemergence
Type in all cases: in vivo
[1] = test system: eastern black nightshade (Solanum ptycanthum); conditions: Solanum, pre-emergence, Preemergence, read-out: Plant response rating, Nightshade
Procedure, shortened: (§1)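 Applications: preemergence onto seeded soil and postemergence onto 1- to 4-leaf seedlings, compound carried in non-phytotoxic solvent plus surfactant. Kept in greenhouse 12 to 14 days. Scored visually relative to untreated controls, 0 (no effect) to 100 (complete control).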

[2] = test system: pigweed (Amaranthus retroflexus); conditions: Amaranthus retroflexus; for pest or weed control at 31 g/ha: 31 g ai/ha; for pest or weed control at 62 g/ha: 62 g ai/ha; for pest or weed control at 125 g/ha: 125 g ai/ha; for pest or weed control at 250 g/ha: 250 g ai/ha
Procedure, shortened: as §1

[3] = test system: crabgrass (Digitaria sanguinalis); conditions: Digitaria sanguinalis; for pest or weed control at 31 g/ha: 31 g ai/ha; for pest or weed control at 62 g/ha: 62 g ai/ha; for pest or weed control at 125 g/ha: 125 g ai/ha; for pest or weed control at 250 g/ha: 250 g ai/ha
Procedure, shortened: as §1

kochia (Kochia scoparia) = conditions: Bassia scoparia; for pest or weed control at 31 g/ha: 31 g ai/ha; for pest or weed control at 62 g/ha: 62 g ai/ha; for pest or weed control at 125 g/ha: 125 g ai/ha; for pest or weed control at 250 g/ha: 250 g ai/ha
Procedure, shortened: as §1

[4] = test system: giant foxtail (Setaria faberii); conditions: Setaria faberi; for pest or weed control at 125 g/ha: 125 g ai/ha; for pest or weed control at 31 g/ha: 31 g ai/ha; for pest or weed control at 62 g/ha: 62 g ai/ha; for pest or weed control at 250 g/ha: 250 g ai/ha
Procedure, shortened: as §1

[5] = test system: yellow nutsedge (Cyperus esculentus); conditions: Cyperus; for pest or weed control at 31 g/ha: 31 g ai/ha; for pest or weed control at 62 g/ha: 62 g ai/ha; for pest or weed control at 125 g/ha: 125 g ai/ha; for pest or weed control at 250 g/ha: 250 g ai/ha
Procedure, shortened: as §1

[6] = post-emergence, Postemergence, scale 0 to 100 (0 no effect, 100 complete control), read-out: Pigweed plant response rating
[7] = pre-emergence, Preemergence, scale 0 to 100, 0 no effect, 100 complete control, read-out: Plant response rating, Pigweed
[8] = pre-emergence, Preemergence, scale 0 to 100, read-out: Plant response rating, Pigweed
[9] = post-emergence, Postemergence, scale 0 to 100 (0 no effect, 100 complete control), read-out: Crabgrass plant response rating
[10] = pre-emergence, Preemergence, scale 0 to 100, 0 no effect, 100 complete control, read-out: Plant response rating, Crabgrass
[11] = pre-emergence, Preemergence, scale 0 to 100, read-out: Plant response rating, Crabgrass
[12] = post-emergence, Postemergence, scale 0 to 100 (0 no effect, 100 complete control), read-out: Kochia plant response rating
[13] = pre-emergence, Preemergence, scale 0 to 100, 0 no effect, 100 complete control, read-out: Plant response rating, Kochia
[14] = pre-emergence, Preemergence, scale 0 to 100, read-out: Plant response rating, Kochia
[15] = post-emergence, Postemergence, scale 0 to 100 (0 no effect, 100 complete control), read-out: Foxtail, Giant plant response rating
[16] = pre-emergence, Preemergence, scale 0 to 100, 0 no effect, 100 complete control, read-out: Plant response rating, Foxtail, Giant
[17] = pre-emergence, Preemergence, scale 0 to 100, read-out: Plant response rating, Foxtail, Giant
[18] = post-emergence, Postemergence, scale 0 to 100 (0 no effect, 100 complete control), read-out: Nutsedge, Yellow plant response rating
[19] = pre-emergence, Preemergence, scale 0 to 100, 0 no effect, 100 complete control, read-out: Plant response rating, Nutsedge, Yellow
[20] = pre-emergence, Preemergence, scale 0 to 100, read-out: Plant response rating, Nutsedge, Yellow

CCOC(=O)c1nc(C2CC2)nc(N)c1F [Compound 30]
0%: pest or weed control at 31 g/ha [2, 7] | pest or weed control at 31 g/ha ([3]; post-emergence, Postemergence, read-out: Plant response rating (scale of 0 to 100), Crabgrass) | pest or weed control at 62 g/ha [3, 9] | pest or weed control at 31 g/ha [3, 10] | pest or weed control at 62 g/ha [3, 10] | pest or weed control at 125 g/ha [4, 15] | pest or weed control at 31 g/ha ([4]; post-emergence, Postemergence, read-out: Plant response rating (scale of 0 to 100), Foxtail, Giant) | pest or weed control at 62 g/ha [4, 15] | pest or weed control at 31 g/ha [4, 16] | pest or weed control at 62 g/ha [4, 16] | pest or weed control at 31 g/ha ([5]; post-emergence, Postemergence, read-out: Plant response rating (scale of 0 to 100), Nutsedge, Yellow) | pest or weed control at 62 g/ha [5, 18] | pest or weed control at 125 g/ha [5, 18] | pest or weed control at 31 g/ha [5, 19] | pest or weed control at 62 g/ha [5, 19] | pest or weed control at 125 g/ha [5, 20] | pest or weed control at 250 g/ha [5, 20]
40%: pest or weed control at 250 g/ha ([4]; post-emergence, Postemergence, scale 0 to 100, read-out: Plant response rating, Foxtail, Giant)
100%: pest or weed control at 125 g/ha ([1]; 125 g ai/ha, scale 0 to 100) | pest or weed control at 250 g/ha ([1]; 250 g ai/ha, scale 0 to 100) | pest or weed control at 125 g/ha (kochia (Kochia scoparia); [12]) | pest or weed control at 250 g/ha (kochia (Kochia scoparia); post-emergence, Postemergence, scale 0 to 100, read-out: Plant response rating, Kochia)
60%: pest or weed control at 31 g/ha ([2]; post-emergence, Postemergence, read-out: Plant response rating (scale of 0 to 100), Pigweed) | pest or weed control at 250 g/ha [4, 17]
20%: pest or weed control at 125 g/ha [4, 17]
30%: pest or weed control at 62 g/ha [2, 7]
80%: pest or weed control at 62 g/ha ([1]; 62 g ai/ha, scale 0 to 100, 0 no effect, 100 complete control) | pest or weed control at 125 g/ha [2, 6] | pest or weed control at 125 g/ha [2, 8]
55%: pest or weed control at 31 g/ha (kochia (Kochia scoparia); post-emergence, Postemergence, read-out: Plant response rating (scale of 0 to 100), Kochia)
85%: pest or weed control at 250 g/ha [3, 11]
50%: pest or weed control at 31 g/ha ([1]; 31 g ai/ha, scale 0 to 100, 0 no effect, 100 complete control) | pest or weed control at 250 g/ha ([3]; post-emergence, Postemergence, scale 0 to 100, read-out: Plant response rating, Crabgrass) | pest or weed control at 31 g/ha (kochia (Kochia scoparia); [13])
70%: pest or weed control at 62 g/ha [2, 6] | pest or weed control at 125 g/ha [3, 11] | pest or weed control at 62 g/ha (kochia (Kochia scoparia); [13]) | pest or weed control at 125 g/ha (kochia (Kochia scoparia); [14])
90%: pest or weed control at 250 g/ha ([2]; post-emergence, Postemergence, scale 0 to 100, read-out: Plant response rating, Pigweed) | pest or weed control at 250 g/ha [2, 8] | pest or weed control at 62 g/ha (kochia (Kochia scoparia); [12]) | pest or weed control at 250 g/ha (kochia (Kochia scoparia); [14])
5%: pest or weed control at 125 g/ha [3, 9] | pest or weed control at 250 g/ha ([5]; post-emergence, Postemergence, scale 0 to 100, read-out: Plant response rating, Nutsedge, Yellow)
